# From patent US9827189B2, “Stable parenteral DNJ compositions” (AMICUS THERAPEUTICS, INC., priority 2013, dated 2017)
# Key:
# [1] = Stability and integrity of 1-DNJ-HCl in buffer solutions at 60° C. by NP-HPLC (UV and CAD) and discoloration; assay type: physicochemical; conditions: 1-DNJ/buffer formulations with a pH in the range of about 6.0-7.5
# Protocol: 1-DNJ-HCl was dissolved in sodium phosphate buffer. 1-DNJ-HCl concentration was 60 mg/mL; sodium phosphate buffer concentration was 100 mM at pH 4.89. The formulation was stored at 60° C. for 4 days. 1-DNJ-HCl solution in water was used as a control. Reaction rate for small molecules such as 1-DNJ-HCl generally follows Arrhenius equation where reaction rate nearly doubles for every 10° C. increase in the temperature. Thus, under this model, the reaction rate at 60° C. would be 2^5 or 32 times the reaction rate at 10° C. Therefore during 4 days at 60° C. 1-DNJ-HCl would degrade by approximately the same percentage as during 128 days (4*32) at 10° C. The stability of 1-DNJ-HCl was measured by normal phase high performance liquid chromatography (NP-HPLC). 1-DNJ-HCl was recorded by UV chromatograms and by Charged Aerosol Detector (CAD) chromatograms. Mobile phase consisted of ACN/30 mM Ammonium Acetate (90/10, v/v). The flow rate was 1.0 ml/min with 5 μl injection at 400° C. UV absorbance was measured at 220 nm CAD detector settings were 35.0 psi, Gain: 100 pA. 1-DNJ-HCl was dissolved in sodium acetate buffer. The 1-DNJ-HCl concentration was 60 mg/mL; sodium acetate buffer concentration was 50 mM at pH 5.5. The formulation was stored at 60° C. for 4 days. 1-DNJ-HCl solution in water was used as control. Reaction rate for small molecules such as 1-DNJ-HCl generally follows the Arrhenius equation, in which the reaction rate nearly doubles for every 10°K increase in the temperature. Thus the reaction rate, under this model, at 60° C. would be 2^5 or 32 times the reaction rate at 10° C. Therefore during 4 days at 60° C. 1-DNJ-HCl would degrade by approximately same percentage as during 128 days at 10° C. The stability of 1-DNJ-HCl was measured by NP-HPLC. Presence of 1-DNJ-HCl was recorded by UV absorbance detector and by Charged Aerosol Detector. Mobile phase consisted of ACN/30 mM Ammonium Acetate (90/10, v/v). The flow rate was 1.0 ml/min with 5 μl injection at 400 C. UV absorbance was measured at 220 nm. CAD detector settings were 35.0 psi, Gain: 100 pA. 1-DNJ-HCl was dissolved in sodium citrate buffer that further includes EDTA. 1-DNJ-HCl concentration was 60 mg/mL; sodium citrate buffer concentration was 50 mM at pH 4.6. The EDTA concentration was 0.05% w/v. Some samples were stored under the nitrogen atmosphere (essentially 100% nitrogen) while others were stored under air. The formulation was stored at 60° C. for 8 days. Stability of 1-DNJ-HCl was measured by NP-HPLC. Presence of 1-DNJ-HCl was recorded by UV absorbance detector and by Charged Aerosol Detector. Mobile phase consisted of ACN/30 mM Ammonium Acetate (90/10, v/v). The flow rate was 1.0 ml/min with 5 μl injection at 400 C. UV absorbance was measured at 220 nm. CAD detector settings were 35.0 psi, Gain: 100 pA. 1-DNJ-HCl was dissolved in sodium citrate buffer. 1-DNJ-HCl concentration was 60 mg/mL; sodium citrate buffer concentration was 50 mM at pH 4.7. The formulation was stored at 60° C. for 8 days. 1-DNJ-HCl solution in water was used as control. Stability of 1-DNJ-HCl was measured by NP-HPLC. Presence of 1-DNJ-HCl was recorded by UV absorbance detector and by Charged Aerosol Detector. Mobile phase consisted of ACN/30 mM Ammonium Acetate (90/10, v/v). The flow rate was 1.0 ml/min with 5 μl injection at 400 C. UV absorbance was measured at 220 nm. CAD detector settings were 35.0 psi, Gain: 100 pA. 1-DNJ-HCl was dissolved in sodium citrate buffer. 1-DNJ-HCl concentration was 60 mg/mL; sodium citrate buffer concentration was 50 mM at pH 5.0. The formulation was stored at 60° C. for 17 days. The samples were stored under the nitrogen atmosphere (essentially 100% nitrogen). 1-DNJ-HCl solution in water was used as control. Reaction rate for small molecules such as 1-DNJ-HCl generally follows Arrhenius equation where reaction rate nearly doubles for every 10°K increase in the temperature. Thus reaction rate at 60° C. would be 2^5 or 32 times the reaction rate at 10° C. Therefore during 17 days at 60° C. […]
# [2] = tested on: human whole blood; assay: Hemolytic potential in human whole blood; assay type: cell-based; conditions: 37 ° C. 30 minutes
# Protocol: (§1) 1-DNJ-HCl was dissolved in sodium citrate buffer. 1-DNJ-HCl concentration was 30 mg/mL (resulting free 1-DNJ concentration was 25 mg/mL); sodium citrate buffer concentration was 50 mM at pH 5.0. 1-DNJ-HCl formulation was added to whole blood samples of male human, rat, and cynomolgus monkey. […]. Buffer served as a negative control, while Triton-X 100 (Lysing agent) served as a positive control. Additionally blood sample without any additions was used as a negative control. The samples were stored at 4° C. Blood samples were incubated at 37 ° C. for 30 minutes with the 1-DNJ-HCl formulation, after which the samples were centrifuged. The amount of hemoglobin in the supernatant from each centrifuged sample was measured using a commercially available hemoglobin assay kit (BioAssay Systems, QuantiChrom™ Hemoglobin Assay Kit) and the Tecan microplate reader.
# [3] = tested on: cynomolgus monkey whole blood; assay: Hemolytic potential in cynomolgus monkey whole blood; assay type: cell-based; conditions: 37 ° C. 30 minutes
# Protocol: as §1
# [4] = tested on: rat whole blood; assay: Hemolytic potential in rat whole blood; assay type: cell-based, Sprague Dawley rat; conditions: 37 ° C. 30 minutes
# Protocol: as §1
# [5] = 500 μL blood mixed with 500 μL sample (30 mg/mL AT2220 or 0.1% Triton X-100)
# [6] = 500 μL blood mixed with 500 μL sample, 30 mg/mL AT2220 dilution 1, 0.1% Triton X-100 dilution 100
# [7] = supernatant, 500 μL blood mixed with 500 μL sample (30 mg/mL AT2220 or 0.1% Triton X-100)
Molecule,Discoloration [1],"% RBC lysis [2, 5] [%]","Avg OD (n = 4) [2, 6]","Hemoglobin [2, 7] [mg/dL]","% RBC lysis [3, 5] [%]","Avg OD (n = 4) [3, 6]","Hemoglobin [3, 7] [mg/dL]","% RBC lysis [4, 5] [%]","Avg OD (n = 4) [4, 6]","Hemoglobin [4, 7] [mg/dL]"
"OC[C@H]1NC[C@H](O)[C@@H](O)[C@@H]1O [1-DNJ, 1-deoxynojirimycin]",discoloration may occur,,,,,,,,,
Triton X-100,,100.0,0.2768,6899,100.0,0.2000,4984,100.0,0.2567,6398
